# Where two headings read alike, the source gives them in different places.
# Key:
# [1] = Dynamic vapour sorption (DVS) analysis, hygroscopicity / water content; type: physicochemical
# Protocol: Analyses were performed on an SMS DVS-1 instrument.
# Method 1: A few mg of the substance was added into an Al pan and exposed to stepwise RH changes during two identical consecutive cycles according to 0-10-20-30-40-50-60-70-80-90-80-70-60-50-40-30-20-10-0% RH using open loop mode. The experiments were performed using a gas flow rate of 200 ml/min and at 25° C. The dm/dt criteria applied were 0.001 weight-%/min during a 5-minutes window, with a maximum allowed time of 360 minutes and a minimum allowed time of 10 minutes for all steps, except for the first stage which was set to a 12-hours fix time.
# (§1) Method 2: A few mg of the substance was added into an Al pan and exposed to stepwise RH changes during two identical consecutive cycles according to 0-10-20-30-40-50-60-70-80-90-80-70-60-50-40-30-20-10-0% RH using open loop mode. The experiments were performed using a gas flow rate of 200 ml/min and at 25° C. The dm/dt criteria applied were 0.001 weight-%/min during a 5-minutes window, with a maximum allowed time of 360 minutes and a minimum allowed time of 10 minutes for all steps.
# Method 3: A few mg of the substance was added into an Al pan and exposed to stepwise RH changes during two identical consecutive cycles according to 0-10-20-30-40-50-60-70-80-90-80-70-60-50-40-30-20-10-0% RH using open loop mode. The experiments were performed using a gas flow rate of 200 ml/min and at 25° C. The dm/dt criteria applied were 0.001 weight-%/min during a 5-minutes window, with a maximum allowed time of 360 minutes and a minimum allowed time of 10 minutes for all steps, except for the first stage which was set to a 6-hours fix time.
# The hygroscopicity of sample 1 of Form A (obtained from a slurry in 2-propanol) was investigated using method 1. […]
# For sample 2 of Form A (obtained from a slurry in acetone), a TGA-dried sample was investigated using method 2. […] In the second cycle, “pure” water absorption and desorption is recorded. […]
# [2] = XRPD check of solid form after TGA or DVS; type: physicochemical
# Protocol: Analyses were performed on a PanAlytical X'Pert Pro diffractometer equipped with a Cu-anode (45 kV, 40 mA), a Kα-1 Johansson monochromator (1.540598 Å) and a Pixcel detector. The 2-theta range was 2-35°, using a step size of 0.013° and a scan speed of 0.10°/s (“6 minutes scan”) or 0.03°/s (“20 minutes scan”). Slow spinning sample holders were used. The samples were smeared out on zero background wafers of Si, producing a flat powdered surface. The measurements were performed using a programmable incident divergency slit.
# Method 1: A few mg of sample was gently charged into open Pt-pans and analysed by weight in a flow of dry nitrogen gas (20 mL/min), to ensure an inert atmosphere, from 25 to 140° C. using a continuous scan speed of 10° C./min, followed by an isothermal step at 140° C. for 60 minutes (ended manually if the drying process was completed before 60 minutes).
# as §1
# [3] = up to 24 hours
# Protocol: The solubility of Form A in Fed State Simulated Gastric Fluid (FEDGAS) mid stage, second version of Fasted State Simulated Intestinal Fluid (FaSSIF-V2) and second version of Fed State Simulated Intestinal Fluid (FeSSIF-V2) was studied.
# To 90 mL of Milli Q water were added 139 mg of NaOH, 222 mg of maleic acid and 401 mg of NaCl and the resulting mixture was stirred until fully dissolved. The pH was adjusted to 6.5 with 1 M HCl and 1 M NaOH, and made up to 100 mL with Milli Q water. 179 mg of FaSSIF-V2 (Biorelevant, batch V2FAS-1020-A) was mixed with the prepared 100 ml of buffer, stirred until fully dissolved and equilibrated at RT for 1 hour before use.
# To 90 ml of Milli Q water were added 327 mg of NaOH, 639 mg of maleic acid and 733 mg of NaCl and the resulting mixture was stirred until fully dissolved. The pH was adjusted to 5.8 with 1 M HCl and 1 M NaOH, and made up to 100 mL with Milli Q water. 976 mg of FeSSIF-V2 (Biorelevant, batch V2FES-1020-A) was mixed with the prepared 100 ml of buffer, stirred until fully dissolved and equilibrated at RT for 1 hour before use. […]
# Saturated solutions were prepared in 4 ml vials by adding fixed weights (excess amounts) of Form A to 2 mL of each of the different buffer solutions. […] Concentrations were calculated from a calibration curve based on 7 calibration standards (stock solutions of 100 and 250 μg/mL, and serial dilutions thereof).
# [4] = cited from earlier work
# [5] = Plasma concentration after oral administration of linaprazan glurate; type: in vivo, human
# gastric acid production [6] = details: cited from earlier work
# gastric acid production [7] = details: cited from earlier work; remark: listed apart in the source
compound,measurement,setting,value
CS(=O)(=O)O.Cc1cccc(C)c1CNc1cc(C(=O)NCCOC(=O)CCCC(=O)O)cn2c(C)c(C)nc12 [Form B],water content,[1]; at 80% RH,about 3.4%
CS(=O)(=O)O.Cc1cccc(C)c1CNc1cc(C(=O)NCCOC(=O)CCCC(=O)O)cn2c(C)c(C)nc12 [Form A],water uptake with relative humidity,"[1]; 0 to 90% RH, 25° C.",increases almost linearly with increasing relative humidity
same,stability at relative humidity,"[1]; relative humidity up to 90%, 25° C.",stable
same,solid form after the TGA experiment (XRPD),"[2]; after heating 25 to 140° C., TGA method 1",this form remained
same,solid form after the DVS-analysis (XRPD),"[2]; after two cycles 0-90% RH, 25° C.",this form remained
same,solubility in FEDGAS relative to FaSSIF-V2,"[3]; FEDGAS mid stage pH 4.5 vs FaSSIF-V2 pH 6.5, 37° C.",about 20 times higher
same,solubility in FEDGAS relative to FeSSIF-V2,"[3]; FEDGAS mid stage pH 4.5 vs FeSSIF-V2 pH 5.8, 37° C.",about 7 times higher
Cc1cccc(C)c1CNc1cc(C(=O)NCCOC(=O)CCCC(=O)O)cn2c(C)c(C)nc12 [Form A (free base)],solubility in water,[4]; pH 1,only slightly soluble
same,solubility in water,[4]; pH 6.8,practically insoluble
"Cc1cccc(C)c1CNc1cc(C(=O)NCCOC(=O)CCCC(=O)O)cn2c(C)c(C)nc12 [linaprazan glurate, 5-{2-[({8-[(2,6-dimethylbenzyl)amino]-2,3-dimethylimidazo[1,2-a]pyridine-6-yl}carbonyl)-amino]ethoxy}-5-oxopentanoic acid]",metabolism following absorption into the blood stream,[5]; in vivo,quickly metabolized into linaprazan
same,plasma concentration,[5]; in vivo,only very low and difficult to determine
same,control of gastric acid production compared to linaprazan,"gastric acid production [6]; human, in vivo",total control of the gastric acid production for a longer time
same,half-life in the body compared to linaprazan,"gastric acid production [6]; human, in vivo",longer half-life in the body
same,time for which intragastric acidity is maintained above pH 4,"gastric acid production [6]; single dose, clinical Phase I study",24 hours
Cc1cccc(C)c1CNc1cc(C(=O)NCCO)cn2c(C)c(C)nc12 [linaprazan],concentration at 22 h,"[5]; human, plasma, oral, after 22 hours, estimated from Phase I studies of linaprazan glurate, read-out: minimal plasma concentration (Cmin) of linaprazan required to maintain intra-gastric pH above 4 for 24 hours",≥ 240 nM
same,onset of action,gastric acid production [7]; Phase I and II studies,fast onset of action and full effect at first dose
same,tolerability,gastric acid production [7]; Phase I and II studies,well tolerated
same,duration of acid inhibition,gastric acid production [7]; in vivo,too short duration of acid inhibition
same,elimination,gastric acid production [7]; in vivo,quickly eliminated from the body

# Source: patent publication US20260158008A1, “POLYMORPHS OF THE MESYLATE SALT OF LINAPRAZAN GLURATE” (Cinclus Pharma Holding AB (Publ), priority 2021, published 2026)
